Assay results from patent publication US7658954B2, “Synergistic antipyretic formulation” (Council of Scientific & Industrial Research, priority 2004, dated 2010).
Marks after values point to notes of the source that are not given here.

System: yeast induced pyrexia
Assay: Antipyretic effect on yeast induced pyrexia in rats
Type: in vivo
Settings: Paracetamol 150 mg/kg

CC(=O)Nc1ccc(O)cc1 [Paracetamol]
Rectal temperature before and after treatment (0 h): 37.7 ± 0.2 °C | Rectal temperature before and after treatment (1 h): 39.0 ± 0.2 °C | Rectal temperature before and after treatment (2 h): 38.1 ± 0.3 °C | Rectal temperature before and after treatment (3 h): 37.7 ± 0.2^b ° C. | Rectal temperature before and after treatment (4 h): 37.6 ± 0.2 °C
